In publication PMC11999280, “Design and screening of novel endosomal escape compounds that enhance functional delivery of oligonucleotides in vitro” (Molecular Therapy. Nucleic Acids, 2025):

How the values were obtained:
Type in all cases: cell-based
[1] = test system: mCherry-GAL9 expressing U2OS cells; assay: GAL9 recruitment assay, U2OS; details: calculated mean from >3 independent exp.
Description: (§1) Experiments assessing GAL9 localization as an indicator for endosomal remodeling were performed as previously described[15] using 8× stablemCherry-GAL9 expressing cell lines, SHSY5Y, U2OS, 16HBE, NCI-H358, HuH7, HepG2, HEK293, and HeLa. For mCherry-GAL9 recruitment, 3,000 or 6,500 cells/well (depending upon cell line) were seeded into 384-well CellCarrier Ultra plates 24 h prior to treatment (PerkinElmer, catalog no. 6007558). An Echo 655T acoustic dispenser (Labcyte) was used for EEE dose-response preparation by transferring to the cell plate. At assay endpoints, cells were PBS washed, 4% paraformaldehyde fixed at room temperature […] (VWR, catalog no. 9713.1000), and nuclei stained with PBS +1 μg/mL Hoechst 33342 (Thermo Fisher Scientific, catalog no. H21492).
(§2) Imaging was performed using a spinning-disk confocal microscope (Yokogawa: CV8000) with a ×20w objective (numerical aperture 1.0). Cells and mCherry-GAL9 structure identification and quantification were done using Columbus image-analysis software (PerkinElmer version 2.9.0). Data processing was done using Spotfire (Tibco version 11.4) and Prism (GraphPad version 9.1.0). Image panels were assembled using the FigureJ plugin for FIJI.[43] All mCherry-GAL9 experiments were performed three times (N = 3) with duplicated wells per treatment (n = 2).

[2] = test system: mCherry-GAL9 expressing HepG2 cells; assay: GAL9 recruitment assay, HepG2; details: calculated mean from >3 independent exp.
Description: as §1, §2

[3] = test system: mCherry-GAL9 expressing 16HBE cells; assay: GAL9 recruitment assay, 16HBE; details: calculated mean from >3 independent exp.
Description: as §1, §2

[4] = test system: mCherry-GAL9 expressing HEK293 cells; assay: GAL9 recruitment assay, HEK293; details: calculated mean from >3 independent exp.
Description: as §1, §2

[5] = test system: mCherry-GAL9 expressing SHSY5Y cells; assay: GAL9 recruitment assay, SHSY5Y; details: calculated mean from >3 independent exp.
Description: as §1, §2

[6] = test system: HeLa_Luc705 cells (pLuc/705 splice-switching reporter); assay: Functional 705-SSO delivery, luciferase splice-switching assay; details: mean from >3 independent experiments
Source text: Therefore, next, we functionally screened the SSO delivery in the HeLa_Luc705 reporter cell line. HeLa_Luc705 carries a pLuc/705 splice-switching reporter luciferase gene interrupted by a mutated β-globin intron, which creates a preferentially used cryptic 5′ splice site leading to aberrant splicing. Functional SSO delivery masks the cryptic site, redirecting the splicing machinery to the right splicing site, allowing the measurement of luciferase expression (Figure S1).[25]^,[26]^,[27]^,[28] We used SSO transfection with LF2000 as transfection control and the previously published endosomal escape enhancer CMP05 (here, EEE2) as positive control.[15]
For the assessment of functional SSO therapeutics, a HeLa_Luc705 cell line was grown in DMEM media supplemented with 10% fetal bovine serum (FBS). For most treatments, 10,000 cells/well were seeded in a 96-well plate, 24 h pre-incubated with 1- to 2-μM oligonucleotide, and then treated at the described EEE concentration. At 24 h post-treatment, cells were PBS rinsed and collected for further analysis (treatments and incubation times changed accordingly to the experiment design). Luciferase readout was performed as previously described,[15] using a GloMax 96-well plate microplate luminometer (Promega) immediately after adding 30 μL auto-injected luciferin substrate (Promega Firefly Luciferase Assay System; Thermo Scientific, catalog no. 16174) in a white-walled 96-well plate containing 30 μL 0.1% Triton X-100 (Sigma-Aldrich) cell lysed. Photon exposure time and delay were set to 10 and 2 s after injection. LF2000 was used as the transfection reagent control (Thermo Scientific, catalog no. 11668019). For EEE experiments using 1 or 2 μM SSOs, the control was prepared using lipofection with 100–200 nM SSO; this is to avoid complex induced cell toxicity.
705-SSO was purchased from and synthesized by Integrated DNA Technologies. The 705-SSO sequence was previously published, containing 2′-O-methylated bases and only phosphorothioate-saturated backbone linkages were included.[15] The 705-SSO was high-performance liquid chromatography purified, shipped, and stored in IDTE buffer (10 mM Tris, 0.1 mM EDTA).

[7] = test system: mCherry-GAL9 expressing HuH7 cells; assay: GAL9 recruitment assay, HuH7; details: calculated mean from >3 independent exp.
Description: as §1, §2

[8] = test system: mCherry-GAL9 expressing HeLa cells; assay: GAL9 recruitment assay, HeLa; details: calculated mean from >3 independent exp.
Description: as §1, §2

[9] = test system: mCherry-GAL9 expressing NCI-H358 cells; assay: GAL9 recruitment assay, NCI-H358; details: calculated mean from >3 independent exp.
Description: as §1, §2

[10] = HeLa-Luc705 + 2 µM SSO, EEE 2.5 - 3 µM

## CCN1CCC(n2cc(Nc3ncc(F)c(-n4ccc5c(C#N)cccc54)n3)c(OC)n2)CC1 [EEE11]
[1]; EEE 0.31 µM
  Gal9 response compared to reference: 0.012
[1]; EEE 0.62 µM
  Gal9 response compared to reference: 0.015
[1]; EEE 1.25 µM
  Gal9 response compared to reference: 0.018
[1]; EEE 2.5 µM
  Gal9 response compared to reference: 0.048
[1]; EEE 5 µM
  Gal9 response compared to reference: 0.317
[1]; EEE 10 µM
  Gal9 response compared to reference: 0.483
[2]; EEE 0.31 µM
  Gal9 response compared to reference: 0.009
[2]; EEE 0.62 µM
  Gal9 response compared to reference: 0.008
[2]; EEE 1.25 µM
  Gal9 response compared to reference: 0.007
[2]; EEE 2.5 µM
  Gal9 response compared to reference: 0.019
[2]; EEE 5 µM
  Gal9 response compared to reference: 0.163
[2]; EEE 10 µM
  Gal9 response compared to reference: 0.568
[3]; EEE 0.31 µM
  Gal9 response compared to reference: 0.013
[3]; EEE 0.62 µM
  Gal9 response compared to reference: 0.013
[3]; EEE 1.25 µM
  Gal9 response compared to reference: 0.056
[3]; EEE 2.5 µM
  Gal9 response compared to reference: 0.167
[3]; EEE 5 µM
  Gal9 response compared to reference: 0.507
[3]; EEE 10 µM
  Gal9 response compared to reference: 0.623
[4]; EEE 0.31 µM
  Gal9 response compared to reference: 0.027
[4]; EEE 0.62 µM
  Gal9 response compared to reference: 0.022
[4]; EEE 1.25 µM
  Gal9 response compared to reference: 0.106
[4]; EEE 2.5 µM
  Gal9 response compared to reference: 0.438
[4]; EEE 5 µM
  Gal9 response compared to reference: 0.779
[4]; EEE 10 µM
  Gal9 response compared to reference: 0.493
[5]; EEE 0.31 µM
  Gal9 response compared to reference: 0.014
[5]; EEE 0.62 µM
  Gal9 response compared to reference: 0.018
[5]; EEE 1.25 µM
  Gal9 response compared to reference: 0.385
[5]; EEE 2.5 µM
  Gal9 response compared to reference: 0.801
[5]; EEE 5 µM
  Gal9 response compared to reference: 0.691
[5]; EEE 10 µM
  Gal9 response compared to reference: 0.469
[6]; [10]
  Luciferase expression compared to reference: 2.093
[7]; EEE 0.31 µM
  Gal9 response compared to reference: 0.009
[7]; EEE 0.62 µM
  Gal9 response compared to reference: 0.008
[7]; EEE 1.25 µM
  Gal9 response compared to reference: 0.023
[7]; EEE 2.5 µM
  Gal9 response compared to reference: 0.154
[7]; EEE 5 µM
  Gal9 response compared to reference: 0.258
[7]; EEE 10 µM
  Gal9 response compared to reference: 0.222
[8]; EEE 0.31 µM
  Gal9 response compared to reference: 0.005
[8]; EEE 0.62 µM
  Gal9 response compared to reference: 0.004
[8]; EEE 1.25 µM
  Gal9 response compared to reference: 0.013
[8]; EEE 2.5 µM
  Gal9 response compared to reference: 0.253
[8]; EEE 5 µM
  Gal9 response compared to reference: 0.553
[8]; EEE 10 µM
  Gal9 response compared to reference: 0.370
[9]; EEE 0.31 µM
  Gal9 response compared to reference: 0.016
[9]; EEE 0.62 µM
  Gal9 response compared to reference: 0.020
[9]; EEE 1.25 µM
  Gal9 response compared to reference: 0.036
[9]; EEE 2.5 µM
  Gal9 response compared to reference: 0.143
[9]; EEE 5 µM
  Gal9 response compared to reference: 0.614
[9]; EEE 10 µM
  Gal9 response compared to reference: 0.576

## COc1nn(C2CCN(CCCO)CC2)cc1Nc1ncc(F)c(-n2ccc3c(C#N)cccc32)n1 [EEE12]
[1]; EEE 0.31 µM
  Gal9 response compared to reference: 0.013
[1]; EEE 0.62 µM
  Gal9 response compared to reference: 0.017
[1]; EEE 1.25 µM
  Gal9 response compared to reference: 0.057
[1]; EEE 2.5 µM
  Gal9 response compared to reference: 0.299
[1]; EEE 5 µM
  Gal9 response compared to reference: 0.511
[1]; EEE 10 µM
  Gal9 response compared to reference: 0.588
[2]; EEE 0.31 µM
  Gal9 response compared to reference: 0.008
[2]; EEE 0.62 µM
  Gal9 response compared to reference: 0.010
[2]; EEE 1.25 µM
  Gal9 response compared to reference: 0.038
[2]; EEE 2.5 µM
  Gal9 response compared to reference: 0.146
[2]; EEE 5 µM
  Gal9 response compared to reference: 0.517
[2]; EEE 10 µM
  Gal9 response compared to reference: 0.574
[3]; EEE 0.31 µM
  Gal9 response compared to reference: 0.014
[3]; EEE 0.62 µM
  Gal9 response compared to reference: 0.063
[3]; EEE 1.25 µM
  Gal9 response compared to reference: 0.180
[3]; EEE 2.5 µM
  Gal9 response compared to reference: 0.658
[3]; EEE 5 µM
  Gal9 response compared to reference: 0.681
[3]; EEE 10 µM
  Gal9 response compared to reference: 0.421
[4]; EEE 0.31 µM
  Gal9 response compared to reference: 0.023
[4]; EEE 0.62 µM
  Gal9 response compared to reference: 0.122
[4]; EEE 1.25 µM
  Gal9 response compared to reference: 0.432
[4]; EEE 2.5 µM
  Gal9 response compared to reference: 0.716
[4]; EEE 5 µM
  Gal9 response compared to reference: 0.604
[4]; EEE 10 µM
  Gal9 response compared to reference: 0.273
[5]; EEE 0.31 µM
  Gal9 response compared to reference: 0.014
[5]; EEE 0.62 µM
  Gal9 response compared to reference: 0.271
[5]; EEE 1.25 µM
  Gal9 response compared to reference: 0.742
[5]; EEE 2.5 µM
  Gal9 response compared to reference: 0.706
[5]; EEE 5 µM
  Gal9 response compared to reference: 0.575
[5]; EEE 10 µM
  Gal9 response compared to reference: 0.177
[6]; [10]
  Luciferase expression compared to reference: 1.720
[7]; EEE 0.31 µM
  Gal9 response compared to reference: 0.014
[7]; EEE 0.62 µM
  Gal9 response compared to reference: 0.031
[7]; EEE 1.25 µM
  Gal9 response compared to reference: 0.143
[7]; EEE 2.5 µM
  Gal9 response compared to reference: 0.357
[7]; EEE 5 µM
  Gal9 response compared to reference: 0.232
[7]; EEE 10 µM
  Gal9 response compared to reference: 0.103
[8]; EEE 0.31 µM
  Gal9 response compared to reference: 0.005
[8]; EEE 0.62 µM
  Gal9 response compared to reference: 0.015
[8]; EEE 1.25 µM
  Gal9 response compared to reference: 0.195
[8]; EEE 2.5 µM
  Gal9 response compared to reference: 0.550
[8]; EEE 5 µM
  Gal9 response compared to reference: 0.394
[8]; EEE 10 µM
  Gal9 response compared to reference: 0.118
[9]; EEE 0.31 µM
  Gal9 response compared to reference: 0.018
[9]; EEE 0.62 µM
  Gal9 response compared to reference: 0.032
[9]; EEE 1.25 µM
  Gal9 response compared to reference: 0.128
[9]; EEE 2.5 µM
  Gal9 response compared to reference: 0.574
[9]; EEE 5 µM
  Gal9 response compared to reference: 0.607
[9]; EEE 10 µM
  Gal9 response compared to reference: 0.422

## COc1nn(C2CCNCC2C)cc1Nc1ncc(F)c(-n2ccc3c(C#N)cccc32)n1 (centres unmarked) [EEE35]
[6]; HeLa-Luc705 + 1 µM SSO, EEE 0.5 µM
  Luciferase expression compared to reference: 1.095
[6]; HeLa-Luc705 + 1 µM SSO, EEE 2 µM
  Luciferase expression compared to reference: 1.804
[6]; HeLa-Luc705 + 1 µM SSO, EEE 4 µM
  Luciferase expression compared to reference: 4.870
[6]; HeLa-Luc705 + 1 µM SSO, EEE 5 µM
  Luciferase expression compared to reference: 9.588
[6]; HeLa-Luc705 + 1 µM SSO, EEE 1-1.25 µM
  Luciferase expression compared to reference: 1.101
[6]; HeLa-Luc705 + 1 µM SSO, EEE 2.5 - 3 µM
  Luciferase expression compared to reference: 2.812
